# Source: article PMC6522510 (Nature Communications, 2019)
# Counter-ions that a name gives are not always drawn. Like-named read-outs stand apart in the source and are kept apart here.
# What was measured:
# Parameters in all cases: species or system AML cell lines (8); Primary HTS, single concentration about 10 uM, Cell Titer Glo viability; log10 luminescence, per cent inhibition relative to cycloheximide control
# Details in all cases: 72 h, relative to cycloheximide control, log10 luminescence, inhibitor
# [1] = system: CHRF288-11
# [2] = system: CMK
# [3] = system: CMS
# [4] = system: M07e
# [5] = system: ML-2
# [6] = system: MOLM-13
# [7] = system: MV4-11
# [8] = system: U937
Structure (SMILES),"CHRF288-11 %inh ([1]; CHRF288-11 %inh, 10 µM)","CMK %inh ([2]; CMK %inh, 10 µM)","CMS %inh ([3]; CMS %inh, 10 µM)","M07e %inh ([4]; M07e %inh, 10 µM)","ML-2 %inh ([5]; ML-2 %inh, 10 µM)","MOLM-13 %inh ([6]; MOLM-13 %inh, 10 µM)","MV4-11 %inh ([7]; MV4-11 %inh, 10 µM)","U937 %inh ([8]; U937 %inh, 10 µM)",CHRF288-11 %inh [1],CMK %inh [2],CMS %inh [3],M07e %inh [4],ML-2 %inh [5],MOLM-13 %inh [6],MV4-11 %inh [7],U937 %inh [8]
"OC[C@H]1O[C@@H](O[C@@H]2[C@@H](CO)OC(O)(CO)[C@H]2O)[C@H](O)[C@@H](O)[C@H]1O (mixture of isomers) [SJ000285579-3, LACTULOSE]",0.1599%,-4.096%,-1.064%,2.568%,-0.1648%,2.867%,0.8098%,-0.7505%,–,–,–,–,–,–,–,–
"OC[C@H]1O[C@@H](O[C@@H]2[C@@H](CO)OC(O)(CO)[C@H]2O)[C@H](O)[C@@H](O)[C@H]1O (mixture of isomers) [SJ000285579-4, LACTULOSE]",2.769%,0.6173%,-0.8505%,8.809%,-0.9858%,5.87%,2.037%,1.171%,–,–,–,–,–,–,–,–
"NC[C@H](CC(=O)O)c1ccc(Cl)cc1 (racemic) [SJ000285686-7, BACLOFEN | (R,S)-BACLOFEN | (±)-BACLOFEN | LIORESAL]",–,–,–,–,–,–,–,–,-1.195%,21.33%,7.511%,-0.3712%,2.059%,8.873%,2.346%,5.766%
"CCOC(=O)C1=C(C)NC(C)=C(C(=O)OC)C1c1cccc(Cl)c1Cl (single isomer, unassigned) [SJ000287293-6, FELODIPINE]",40.78%,32.28%,3.783%,5.04%,0.03711%,23.61%,5.092%,12.66%,–,–,–,–,–,–,–,–
"CCOC(=O)C1=C(C)NC(C)=C(C(=O)OC)C1c1cccc(Cl)c1Cl (single isomer, unassigned) [SJ000287293-7, FELODIPINE]",33.72%,36.03%,-2.469%,7.937%,2.538%,16.76%,12.83%,12.4%,–,–,–,–,–,–,–,–
"C[C@]12CC[C@@H]3c4ccc(O)cc4C[C@@H](CCCCCCCCC[S+]([O-])CCCC(F)(F)C(F)(F)F)[C@H]3[C@@H]1CC[C@@H]2O (single isomer, unassigned) [SJ000288293-3, FULVESTRANT | FULVESTRANT| FASLODEX | FASLODEX (ICI 182,780)]",4.612%,-2.659%,2.454%,3.741%,2.01%,-2.461%,13.25%,-0.5617%,–,–,–,–,–,–,–,–
"C[C@]12CC[C@@H]3c4ccc(O)cc4C[C@@H](CCCCCCCCC[S+]([O-])CCCC(F)(F)C(F)(F)F)[C@H]3[C@@H]1CC[C@@H]2O (single isomer, unassigned) [SJ000288293-4, FULVESTRANT | FULVESTRANT| FASLODEX | FASLODEX (ICI 182,780)]",-3.752%,-2.475%,2.909%,2.696%,1.626%,-1.784%,6.552%,-1.083%,–,–,–,–,–,–,–,–
"O=[N+]([O-])c1ccc(Oc2ccc(Br)cc2)c(C(O)P(=O)(O)O)c1 (single isomer, unassigned) [SJ000312207-2, RWJ-60475]",1.479%,0.9236%,0.5647%,-2.334%,0.244%,9.917%,4.34%,1.53%,–,–,–,–,–,–,–,–
"O=[N+]([O-])c1ccc(Oc2ccc(Br)cc2)c(C(O)P(=O)(O)O)c1 (single isomer, unassigned) [SJ000312207-3, RWJ-60475]",-1.978%,2.859%,-0.822%,1.458%,4.625%,10.73%,2.215%,3.171%,–,–,–,–,–,–,–,–
"Clc1ccc(C(Cn2ccnc2)OCc2ccsc2Cl)c(Cl)c1 (single isomer, unassigned) [SJ000556739-1, TIOCONAZOLE]",35.73%,41.48%,7.938%,14.34%,9.708%,23.12%,16.99%,20.14%,–,–,–,–,–,–,–,–
"Clc1ccc(C(Cn2ccnc2)OCc2ccsc2Cl)c(Cl)c1 (single isomer, unassigned) [SJ000556739-2, TIOCONAZOLE]",62.31%,43.08%,5.318%,7.997%,3.315%,22.63%,16.77%,5.367%,–,–,–,–,–,–,–,–
"Cc1cc(NS(=O)(=O)c2ccc(N)cc2)no1 [SJ000285603-4, SULFAMETHOXAZOLE]",–,–,–,–,–,–,–,–,6.539%,-0.9998%,-0.6486%,0.538%,–,-2.87%,0.1304%,-2.098%
"CC(=O)N(O)CCCCCNC(=O)CCC(=O)N(O)CCCCCNC(=O)CCC(=O)N(O)CCCCCN [SJ000285725-4, DEFEROXAMINE MESYLATE]",11.08%,–,42.04%,6.608%,7.19%,17.22%,2.029%,–,–,16.85%,–,–,–,–,–,–
"C[C@H]1O[C@@H](O[C@H]2[C@@H](O)C[C@H](O[C@H]3[C@@H](O)C[C@H](O[C@H]4CC[C@@]5(C)[C@H](CC[C@@H]6[C@@H]5C[C@@H](O)[C@]5(C)[C@@H](C7=CC(=O)OC7)CC[C@]65O)C4)O[C@@H]3C)O[C@@H]2C)C[C@H](O)[C@@H]1O [SJ000285739-7, DIGOXIN]",112.6%,–,94.04%,–,58.17%,85.14%,73.33%,-15.97%,–,–,–,–,–,–,–,–
"Cc1cnc(C(=O)NCCc2ccc(S(=O)(=O)NC(=O)NC3CCCCC3)cc2)cn1 [SJ000287188-5, GLIPIZIDE]",–,–,–,–,–,–,–,–,-3.512%,3.258%,1.05%,3.86%,–,17.27%,-0.3606%,0.1954%
"C[N+]1(C)CCC(OC(=O)C(O)(c2ccccc2)C2CCCC2)C1 (stereo not drawn) [SJ000287387-2, GLYCOPYRROLATE]",–,–,–,–,–,–,–,–,7.948%,-4.149%,-3.738%,3.68%,–,6.707%,0.8412%,2.372%
"CN(CCOc1ccc(NS(C)(=O)=O)cc1)CCc1ccc(NS(C)(=O)=O)cc1 [SJ000555707-1, DOFETILIDE]",–,–,–,–,–,–,–,–,-0.9409%,10.12%,–,3.914%,3.818%,10.35%,4.51%,5.896%
